According to US10435408B2, “Azepine derivatives as 5-HT7 receptor modulators” (KOREA INSTITUTE OF SCIENCE AND TECHNOLOGY, priority 2016, dated 2019):

Biological target: Human gene recombinant 5-HT7 receptor (Homo sapiens (Human), UniProt P34969)
Assay: Measurement of binding affinity for serotonin 5-HT7 receptor ([3H]LSD radioligand binding)
Settings: [3H]LSD 1 nM, 5-HT7 receptor membrane from CHO cells; for inhibition at 10 µM: 10 μM compound; for Ki: nonlinear regression
Experimental: Human gene recombinant 5-HT7 receptor expressed in Chinese hamster ovary (CHO) cells was used. [^3H]LSD 1 nM, the 5-HT7 receptor membrane (15 μg/well), each of the samples of Example 1-20 at various concentrations, 10 mM MgCl2, and 50 mM Tris-HCl buffer (pH 7.4) containing 0.1 mM EDTA were added to a vessel until the final volume reached 0.25 ml. The reaction mixture was incubated at 25° C. for 90 min. The incubated reaction mixture was rapidly passed through a Whatman GF/C glass fiber filter, which had been previously soaked with 0.3% polyethyleneimine, using a Brandel-Harvester to quench the reaction and washed with cold 50 mM Tris-HCl buffer. The filter was covered with MeltiLex, sealed in a sample bag, and dried in an oven. The radioactivity retained in the filter was counted using MicroBeta (Wallac). Non-specific binding was determined in the presence of 0.5 μM Mianserin.

Human gene recombinant 5-HT7 receptor, sequence (P34969 whole entry): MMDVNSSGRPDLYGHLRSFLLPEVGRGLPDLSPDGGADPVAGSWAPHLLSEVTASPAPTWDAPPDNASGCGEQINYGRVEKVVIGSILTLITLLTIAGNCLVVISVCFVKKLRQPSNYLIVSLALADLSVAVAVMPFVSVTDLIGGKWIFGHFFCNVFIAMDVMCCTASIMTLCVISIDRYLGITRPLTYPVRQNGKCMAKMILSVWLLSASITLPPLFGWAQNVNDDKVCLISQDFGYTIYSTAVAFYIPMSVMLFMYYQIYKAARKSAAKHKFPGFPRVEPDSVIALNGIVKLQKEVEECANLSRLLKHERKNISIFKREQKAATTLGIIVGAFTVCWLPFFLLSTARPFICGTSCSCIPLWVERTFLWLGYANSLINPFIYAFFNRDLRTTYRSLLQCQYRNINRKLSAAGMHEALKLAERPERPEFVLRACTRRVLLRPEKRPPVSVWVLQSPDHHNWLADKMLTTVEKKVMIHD

inhibition at 10 µM [%]	Ki [nM]	SMILES
84.5	425	Clc1ccccc1-c1noc2c1CCNCC2 [Example 14, 3-(2-chlorophenyl)-5,6,7,8-tetrahydro-4H-isoxazolo[4,5-d]azepine]
76.3	506	Cc1cccc(-c2noc3c2CCNCC3)c1 [Example 18, 3-(m-tolyl)-5,6,7,8-tetrahydro-4H-isoxazolo[4,5-d]azepine]
57.5	1410	Fc1cccc(-c2noc3c2CCNCC3)c1 [Example 12, 3-(3-fluorophenyl)-5,6,7,8-tetrahydro-4H-isoxazolo[4,5-d]azepine]
78.7	369	Clc1cccc(-c2noc3c2CCNCC3)c1 [Example 15, 3-(3-chlorophenyl)-5,6,7,8-tetrahydro-4H-isoxazolo[4,5-d]azepine]
94.6	53	Fc1ccc(-c2noc3c2CCNCC3)cc1 [Example 13, 3-(4-fluorophenyl)-5,6,7,8-tetrahydro-4H-isoxazolo[4,5-d]azepine]
96.3	16	Cc1ccc(-c2noc3c2CCNCC3)cc1 [Example 19, 3-(p-tolyl)-5,6,7,8-tetrahydro-4H-isoxazolo[4,5-d]azepine]
41.8	–	Cc1ccccc1-c1noc2c1CCNCC2 [Example 17, 3-(o-tolyl)-5,6,7,8-tetrahydro-4H-isoxazolo[4,5-d]azepine]
84.3	319	c1ccc(-c2noc3c2CCNCC3)cc1 [Example 10, 3-phenyl-5,6,7,8-tetrahydro-4H-isoxazolo[4,5-d]azepine]
77.9	366	Fc1ccccc1-c1noc2c1CCNCC2 [Example 11, 3-(2-fluorophenyl)-5,6,7,8-tetrahydro-4H-isoxazolo[4,5-d]azepine]
93.8	70	Clc1ccc(-c2noc3c2CCNCC3)cc1 [Example 16, 3-(4-chlorophenyl)-5,6,7,8-tetrahydro-4H-isoxazolo[4,5-d]azepine]
87.9	303	COc1ccccc1-c1noc2c1CCNCC2 [Example 20, 3-(2-methoxyphenyl)-5,6,7,8-tetrahydro-4H-isoxazolo[4,5-d]azepine]

Further lines, the molecule ahead of its results:

SMILES	inhibition at 10 µM [%]	Ki [nM]
Cc1cccc(-c2n[nH]c3c2CCNCC3)c1 [Example 8, 3-(m-tolyl)-1,4,5,6,7,8-hexahydropyrazolo[3,4-d]azepine]	63	1440
Fc1cccc(-c2n[nH]c3c2CCNCC3)c1 [Example 3, 3-(3-fluorophenyl)-1,4,5,6,7,8-hexahydropyrazolo[3,4-d]azepine]	72.9	1240
Clc1ccccc1-c1n[nH]c2c1CCNCC2 [Example 4, 3-(2-chlorophenyl)-1,4,5,6,7,8-hexahydropyrazolo[3,4-d]azepine]	88.7	386
Cc1ccc(-c2n[nH]c3c2CCNCC3)cc1 [Example 9, 3-(p-tolyl)-1,4,5,6,7,8-hexahydropyrazolo[3,4-d]azepine]	94.2	47
Clc1cccc(-c2n[nH]c3c2CCNCC3)c1 [Example 5, 3-(3-chlorophenyl)-1,4,5,6,7,8-hexahydropyrazolo[3,4-d]azepine]	79.2	883
Clc1ccc(-c2n[nH]c3c2CCNCC3)cc1 [Example 6, 3-(4-chlorophenyl)-1,4,5,6,7,8-hexahydropyrazolo[3,4-d]azepine]	96.4	30
Cc1ccccc1-c1n[nH]c2c1CCNCC2 [Example 7, 3-(o-tolyl)-1,4,5,6,7,8-hexahydropyrazolo[3,4-d]azepine]	68.5	881
Fc1ccccc1-c1n[nH]c2c1CCNCC2 [Example 2, 3-(2-fluorophenyl)-1,4,5,6,7,8-hexahydropyrazolo[3,4-d]azepine]	78.9	714
c1ccc(-c2n[nH]c3c2CCNCC3)cc1 [Example 1, 3-phenyl-1,4,5,6,7,8-hexahydropyrazolo[3,4-d]azepine]	84.2	322
